Data: PubChem BioAssay (NCI)
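These data come from cells grown in 96-well plates and exposed to compound for 48 hours at five concentrations. At the GI50, growth is halved. TGI denotes the concentration required for complete inhibition of growth.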

Key:
Assay in all cases: inhibition of tumour cell growth, NCI panel, 48 h
ACHN renal = tested on: ACHN renal
EKVX NSCLC = tested on: EKVX NSCLC
OVCAR-5 ovarian = tested on: OVCAR-5 ovarian
T-47D breast = tested on: T-47D breast
HCT-15 colon = tested on: HCT-15 colon
MDA-MB-435 = tested on: MDA-MB-435
RPMI-8226 leukemia = tested on: RPMI-8226 leukemia
SK-OV-3 ovarian = tested on: SK-OV-3 ovarian
A498 renal = tested on: A498 renal

| Structure (SMILES) | GI50 (ACHN renal) | TGI (ACHN renal) | GI50 (EKVX NSCLC) | TGI (EKVX NSCLC) | GI50 (OVCAR-5 ovarian) | TGI (OVCAR-5 ovarian) | GI50 (T-47D breast) | TGI (T-47D breast) | GI50 (HCT-15 colon) | TGI (HCT-15 colon) | GI50 (MDA-MB-435) | TGI (MDA-MB-435) | GI50 (RPMI-8226 leukemia) | TGI (RPMI-8226 leukemia) | TGI (SK-OV-3 ovarian) | TGI (A498 renal) | GI50 (A498 renal) | GI50 (SK-OV-3 ovarian) |
| --- | --- | --- | --- | --- | --- | --- | --- | --- | --- | --- | --- | --- | --- | --- | --- | --- | --- | --- |
| CCOC(=O)c1cc2cc(NC(=O)c3cc4cc([N+](=O)[O-])ccc4n3C)ccc2n1C | 13.5 µM | 31.9 µM | 20 µM | > 100 µM | 21.7 µM | 61.9 µM | 42 µM | > 100 µM | 15.4 µM | 51.6 µM | 60.9 µM | > 100 µM | 49.7 µM | > 100 µM | – | – | – | – |
| COc1ccc(CCNCc2cccc(OC)c2OC)cc1OC | – | > 100 µM | – | > 100 µM | – | > 100 µM | – | – | – | > 100 µM | – | – | – | > 100 µM | > 100 µM | – | – | – |
| CN(/N=C/c1ccnc2ccccc12)c1ccc([N+](=O)[O-])cc1[N+](=O)[O-] | – | > 100 µM | – | > 100 µM | – | > 100 µM | – | – | – | > 100 µM | – | – | – | > 100 µM | > 100 µM | > 100 µM | – | – |
| CCOC(=O)CNC(=O)CCCn1c(=O)c2c3ccccc3n(C)c2n2nnc(-c3ccccc3)c12 | 9.24 µM | 33.7 µM | 20.5 µM | > 50 µM | 27.7 µM | > 50 µM | 43.9 µM | > 50 µM | > 50 µM | > 50 µM | > 50 µM | > 50 µM | 10.7 µM | 33.9 µM | 44 µM | 24.6 µM | 7.29 µM | 6.7 µM |
| O=C1OC(c2ccccc2)=N/C1=C\c1c(O)cc(O)cc1O | – | > 100 µM | – | > 100 µM | – | > 100 µM | – | – | – | > 100 µM | – | – | – | > 100 µM | > 100 µM | > 100 µM | – | – |
| CCN(CC)CCCCCOc1cc(O)c2c(=O)cc(-c3ccccc3)oc2c1 | 3.72 µM | 11.7 µM | 6.93 µM | 23.6 µM | 2.37 µM | 6.97 µM | – | – | 1.58 µM | 3.76 µM | 3.18 µM | 7.63 µM | – | – | 17.8 µM | 9.48 µM | 2.46 µM | 6.95 µM |
| COc1ccc(/C(Cl)=C(\C=O)c2ccc(Br)cc2)cc1OC | – | > 100 µM | – | > 100 µM | – | > 100 µM | – | – | – | > 100 µM | – | – | – | > 100 µM | > 100 µM | > 100 µM | – | – |
| O=C(Nc1cccc(C(F)(F)F)c1)c1cccc(NC2=C(Cl)C(=O)N(Cc3ccccc3)C2=O)c1 | 15.8 µM | 85.2 µM | 68.5 µM | > 100 µM | > 100 µM | > 100 µM | 6.28 µM | 89.9 µM | 5.1 µM | > 100 µM | 8.69 µM | > 100 µM | 1.89 µM | 6.51 µM | > 100 µM | 90.7 µM | 40.3 µM | 79.1 µM |
| CCc1ccccc1-n1c2nc(=O)n(C)c(=O)c-2nc2ccccc21 | – | 16.3 µM | – | 24.6 µM | – | 34.3 µM | – | – | – | 23.4 µM | – | – | – | 58.7 µM | > 100 µM | 32.5 µM | – | – |
| COc1ccc(NC(=O)Nc2ccc(Nc3nc(C)cc(Nc4ccc(C)cc4)n3)cc2)cc1 | 1.75 µM | 3.13 µM | 2.03 µM | 4.42 µM | 1.72 µM | 3.22 µM | 1.78 µM | 4.24 µM | 1.63 µM | 3.29 µM | – | – | 0.71 µM | 1.65 µM | 6.59 µM | 18.8 µM | 7.29 µM | 2.46 µM |
| CC[C@@H](C)[C@H]([C@H](CC(=O)N1CCC[C@@H]1[C@@H](OC)[C@H](C)C(=O)N[C@H](Cc1ccccc1)c1nccs1)OC)N(C)C(=O)[C@H](NC(=O)[C@@H](C(C)C)N(C)C)C(C)C | – | > 100 µM | – | – | < 0.0152 µM | – | – | > 100 µM | – | 0.0054 µM | – | 2.94e-06 µM | 0.000425 µM | – | – | – | – | 7.9e-05 µM |
| CCOC(=O)CC1=NC(=Nc2cc(Cl)ccc2Cl)SC1 | – | > 100 µM | – | > 100 µM | – | > 100 µM | – | – | – | > 100 µM | – | – | – | – | > 100 µM | > 100 µM | – | – |
| O=C(N/C(=C\c1ccc(Br)cc1)c1nc2ccccc2s1)c1ccccc1 | – | > 100 µM | – | > 100 µM | – | > 100 µM | – | – | – | > 100 µM | – | – | – | > 100 µM | > 100 µM | > 100 µM | – | – |
| Cc1[nH]c(=O)nc(CC(O)(c2ccccc2)c2ccccc2)c1-c1ccccc1 | – | > 100 µM | – | > 100 µM | – | > 100 µM | – | – | – | > 100 µM | – | – | – | – | > 100 µM | > 100 µM | – | – |
| COc1cc2nc(-c3ccc(-n4cncc4-c4ccc(N)cc4)cc3)sc2c(OC)c1OC | 8.56 µM | > 100 µM | 2.49 µM | 75.9 µM | 34.3 µM | > 100 µM | 1.59 µM | 6.71 µM | – | – | – | – | – | – | 31.3 µM | > 100 µM | 2.13 µM | 11.7 µM |
| COc1ccc2c(c1OC)-c1c(c3ccc([N+](=O)[O-])cc3c(=O)n1CCCN=[N+]=[N-])C2=O | 3.63 µM | 22.1 µM | > 100 µM | > 100 µM | > 100 µM | > 100 µM | 5.29 µM | > 100 µM | > 100 µM | > 100 µM | 72.4 µM | > 100 µM | 5.18 µM | > 100 µM | > 100 µM | > 100 µM | 82.3 µM | 19.4 µM |
